Data set [1] in a line: Acute toxicity (DL50) after single oral administration to mice. Particulars: mouse, in vivo, read-out: DL50 in mg/kg p.o. From the text: In der nachfolgenden Tabelle werden die Resultate dargestellt, welche mit einigen repräsentativen erfindungsgemässen Substanzen erhalten worden sind. Angegeben werden für jede der darin figurierenden Verbindung die VD50 in mg/kg p.o. und, für einige dieser Verbindungen, die DL50 in mg/kg bei einmaliger oraler Verabreichung an Mäusen.

For another data set, the system named is Schistosoma mansoni. The data set can be described thus: Schistosomicidal (vermicidal) activity in infected mice, single oral treatment, worm count reduction. Type of data set: in vivo. Particulars: 456 h, Albino-Mäuse infected s.c. with cercariae of a Liberia-Stamm of Schistosoma mansoni, single peroral treatment 46 days after infection, section after 19 days, dose giving 50% reduction of worm count (Probitmethode), read-out: VD50 in mg/kg p.o. From the text: Die schistosomizide Wirkung der erfindungsgemässen Stoffe kann tierexperimentell wie folgt nachgewiesen werden: • Albino-Mäuse mit einem Gewicht von 15-18 g werden subcutan mit 60 + 5 Cercarien eines Liberia-Stammes von Schistosoma mansoni infiziert. 46 Tage nach der Infektion werden die Tiere einmal mit den zu prüfenden Substanzen peroral behandelt. Pro Substanz und Dosierung werden 5-10 Tiere eingesetzt. Als Kontrolle dienen 10 unbehandelte Tiere. Die Sektion erfolgt nach 19 Tagen, worauf Wurmpaare und einzelne Würmer in Mesenterialvenen, Pfortader und Leber herauspräpariert und gezählt werden. Die vermicide Wirkung zeigt sich in einer reduzierten Zahl lebender Parasiten im Vergleich zu der Zahl in den Kontrolltieren.
Zur Auswertung wird die prozentuale Reduktion der Parasiten bei behandelten Tieren im Vergleich zu unbehandelten Kontrolltieren berechnet. Man bestimmt die VD 50 nach der Probitmethode. Die VD50 ist diejenige vermizide Dosis, welche eine 50-proz. Reduktion der Wurmzahl bewirkt.

Counter-ions that a name gives are not always drawn.

`CCN(CC)CCn1c2ccccc2c(=NN=C2NCCS2)c2ccccc21` [10-[2-(Diäthylamino)äthyl]-9-acridanon-(2-thiazolidinyliden)hydrazon]: in data set [1], the LD50 fell in the range of 312 to 625 mg/kg. The ED50 in the data set on Schistosoma mansoni is 9.5 mg/kg.
As for `c1ccc2c(c1)c(=NN=C1NCCS1)c1ccccc1n2CCN1CCCC1` [10-[2-(1-Pyrrolidinyl)äthyl]-9-acridanon-(2-thiazolidinyliden)hydrazon], the LD50 in data set [1] lay within 156 to 312 mg/kg. Also, the ED50 in the data set with Schistosoma mansoni was determined as 6.2 mg/kg.
For `c1ccc2c(c1)c(=NNc1nccs1)c1ccccc1n2CCN1CCCCC1` [10-[2-(1-Piperidinyl)äthyl]-9-acridanon-(2-thiazolyl)hydrazon-l,5 HCl], in that order: 312 to 625 mg/kg and 9 mg/kg.
As to `NCCn1c2ccccc2c(=NNc2nccs2)c2ccccc21` [10-(2-Aminoäthyl)-9-acridanon-2-thiazolyl-hydrazon-dihydrochlorid], the LD50 in data set [1] lay in the range of 156 to 312 mg/kg. The ED50 with Schistosoma mansoni stood at 2.6 mg/kg.
Take `CN1CCN(CCn2c3ccccc3c(=NN=C3NCCS3)c3ccccc32)CC1` [10-[2-(4-Methyl-1-piperazinyl)äthyl]-9-acridanon-(2-thiazolidinyliden)hydrazon]: in data set [1], the LD50 fell in the range of 156 to 312 mg/kg. In the data set with Schistosoma mansoni, the ED50 came to 4 mg/kg.
For `CC(=O)N1CCN(CCn2c3ccccc3c(=NN=C3NCCS3)c3ccccc32)CC1` [10-[2-(4-Acetyl-1-piperazinyl)äthyl]-9-acridanon-(2-thiazolidinyliden)-hydrazon], in that order: 1250 to 2500 mg/kg and 3.4 mg/kg.
For `CN(C)CCn1c2ccccc2c(=NN=C2NCCS2)c2ccccc21` [10-[2-(Dimethylamino)-äthyl]-9-acridanon-(2-thiazolidinyliden)hydrazon], in that order: 250 to 500 mg/kg and 6.4 mg/kg.
For `CCN(CC)CCn1c2ccccc2c(=NNc2nccs2)c2ccccc21` [10-[2-(Diäthylamino)äthylJ-9-acridanon-(2-thiazolyl)hydrazon-dihydrochlorid], in that order: over 5000 mg/kg and 3.3 mg/kg.
`CN(C)CCCn1c2ccccc2c(=NNc2nccs2)c2ccccc21.Cl.Cl` [10-[3-(Dimethylamino)propyl]-9-acridanon-(2-thiazolyl)hydrazon-dihydrochlorid]: in data set [1], the LD50 lay within 312 to 625 mg/kg. The ED50 with Schistosoma mansoni is 3.5 mg/kg.
For `CN1CCN(CCn2c3ccccc3c(=NNc3nccs3)c3ccccc32)CC1` [10-12-(4-Methyl-1-piperazinyl)äthyl]-9-acridanon-(2-thiazolyl)hydrazon.2,5 HCl], in that order: 625 to 1250 mg/kg and 2.4 mg/kg.
For the compound `CN(C)CCCn1c2ccccc2c(=NN=C2NCCS2)c2ccccc21` [10-[3-(Dimethylamino)propyl]-9-acridanon-(2-thiazolidinyliden)hydrazon], the LD50 in data set [1] is 125 to 250 mg/kg. Further, the ED50 with Schistosoma mansoni worked out at 4.7 mg/kg.
For `CN(C)CCn1c2ccccc2c(=NNc2nccs2)c2ccccc21` [10-[2-(Dimethylamino)äthyl]-9-acridanon-(2-thiazolyl)hydrazon-dihydrochlorid], in that order: 312 to 625 mg/kg and 4.9 mg/kg.
For `CC(=O)N1CCN(CCn2c3ccccc3c(=NNc3nccs3)c3ccccc32)CC1` [10-[2-(4-Acetyl-1-piperazinyl)äthyl]-9-acridanon-(2-thiazolyl)hydrazon-dihydrochlorid], in that order: 312 to 625 mg/kg and 2.6 mg/kg.

These data come from patent EP0110298A1, “Acridanone derivatives” (F. HOFFMANN-LA ROCHE & CO. Aktiengesellschaft, priority 1982, dated 1984).
